From ChEMBL document CHEMBL1201862, “PubChem BioAssay data set” (2004)
Activity calls are given as the source filed them.

Key:
[1] = target: Cytochrome P450 2C9 (Homo sapiens, UniProt P11712)
[2] = test system: BJ; test: BJ-TERT fibroblast viability loss – cell-based, RAS-independent, luminescence, dose response (AID 1933); type: functional; settings: Homo sapiens
[3] = test system: BJ; test: cells; type: functional, cell-based; settings: Homo sapiens
[4] = viability of PTEN-deleted HCT116 cells – cell-based, HCT116 PTEN knockout, dose response (AID 1047); type: functional;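 further: HCT116 colon tumor cells with PTEN knocked out; cells exposed to compound for 60 hours before readout; potency for loss of cell viability measured by luminescence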
[5] = viability of HCT116 lacking mutant beta-catenin – cell-based, human colon tumor, dose response (AID 1045); type: functional;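 further: HCT116 colon tumor cells with beta catenin knocked out; cells exposed to compound for 60 hours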
[6] = test system: BJ; test: BJ-TERT-LT-ST fibroblast viability loss – cell-based, RAS-independent, luminescence, dose response (AID 1935); type: functional; settings: Homo sapiens;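 further: BJ fibroblasts immortalized with TERT plus LT and ST oncogenes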
[7] = DRD fibroblast viability loss – cell-based, non-viral oncogenic, luminescence, dose response (AID 1934); type: functional; settings: Homo sapiens
[8] = cells; type: functional, cell-based
[9] = cells; type: functional, cell-based; remark: listed apart in the source
[10] = target: T1, Heat shock factor protein 1 (Mus musculus, UniProt P38532); test: decrease of HSF1-responsive luciferase luminescence – cell-based, NIH3T3, dose retest, confirmation (AID 2382); type: functional;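 further: NIH3T3 fibroblasts with HSF1-driven luciferase reporter stressed by proteasome inhibitor MG132; luminescence from HSF1-driven luciferase expression after 8 hours of MG132 stress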
T1 sequence (P38532 whole entry): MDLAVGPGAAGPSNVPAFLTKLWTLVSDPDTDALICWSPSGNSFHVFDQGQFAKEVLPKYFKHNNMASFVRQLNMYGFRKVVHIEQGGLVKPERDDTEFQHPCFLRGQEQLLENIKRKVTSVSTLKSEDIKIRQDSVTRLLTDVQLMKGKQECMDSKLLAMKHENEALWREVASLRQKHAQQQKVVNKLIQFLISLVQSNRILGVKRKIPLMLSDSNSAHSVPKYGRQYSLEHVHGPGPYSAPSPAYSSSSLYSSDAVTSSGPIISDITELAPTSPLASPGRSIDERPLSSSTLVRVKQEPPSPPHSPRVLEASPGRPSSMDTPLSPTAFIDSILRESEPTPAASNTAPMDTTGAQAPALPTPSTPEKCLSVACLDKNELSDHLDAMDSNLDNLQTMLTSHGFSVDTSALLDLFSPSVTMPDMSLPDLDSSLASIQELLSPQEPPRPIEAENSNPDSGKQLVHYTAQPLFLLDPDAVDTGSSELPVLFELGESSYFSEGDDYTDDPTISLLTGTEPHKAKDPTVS

[11] = target: T2, Calpain-2 catalytic subunit (Sus scrofa, UniProt P43367); test: m-calpain protease blockers, concentration series – biochemical, fluorogenic peptide substrate, dose response (AID 1420); type: functional
T2 sequence (P43367 whole entry): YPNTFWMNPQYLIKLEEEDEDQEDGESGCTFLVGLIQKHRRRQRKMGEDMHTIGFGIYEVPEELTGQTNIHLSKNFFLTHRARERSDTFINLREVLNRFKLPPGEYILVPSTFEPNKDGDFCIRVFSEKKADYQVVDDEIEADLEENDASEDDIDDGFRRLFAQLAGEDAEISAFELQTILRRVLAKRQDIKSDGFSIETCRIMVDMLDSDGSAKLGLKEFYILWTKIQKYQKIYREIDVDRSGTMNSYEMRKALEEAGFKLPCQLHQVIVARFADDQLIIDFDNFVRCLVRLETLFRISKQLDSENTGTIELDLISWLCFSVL

[12] = target: Luciferin 4-monooxygenase (Photinus pyralis, UniProt P08659); test: inhibition of purified Photinus pyralis luciferase – biochemical, luminescence, dose response (AID 1891)
Luciferin 4-monooxygenase, sequence (P08659 whole entry): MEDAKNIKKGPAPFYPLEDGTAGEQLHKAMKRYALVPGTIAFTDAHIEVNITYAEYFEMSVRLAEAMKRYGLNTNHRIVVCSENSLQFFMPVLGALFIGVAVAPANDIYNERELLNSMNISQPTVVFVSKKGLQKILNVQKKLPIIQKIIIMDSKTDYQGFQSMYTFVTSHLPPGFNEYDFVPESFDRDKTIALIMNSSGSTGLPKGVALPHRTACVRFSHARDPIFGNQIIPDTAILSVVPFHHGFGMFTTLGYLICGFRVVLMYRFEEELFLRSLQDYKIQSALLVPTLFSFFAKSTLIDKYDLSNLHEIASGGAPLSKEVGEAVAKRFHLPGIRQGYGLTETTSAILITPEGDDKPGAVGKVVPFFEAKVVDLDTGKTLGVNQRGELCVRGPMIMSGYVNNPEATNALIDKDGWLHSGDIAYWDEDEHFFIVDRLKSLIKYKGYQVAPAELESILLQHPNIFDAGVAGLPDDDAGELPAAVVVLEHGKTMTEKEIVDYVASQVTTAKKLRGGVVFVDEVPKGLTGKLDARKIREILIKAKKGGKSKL

[13] = Luminescence Cell-Based Dose Confirmation HTS to Identify Inhibitors of Platelet Dense Granule Release. [Related pubchem assays: 1663 (Primary HTS), 1678 (Summary of Project)]; type: functional
[14] = Trypanosoma cruzi growth suppression in host cells – NIH3T3 host cells, beta-gal luminescence, confirmation (AID 2044); type: functional, cell-based;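 further: intracellular parasites grown in NIH/3T3 mouse fibroblasts as host cells; luminescent beta-galactosidase reporter signal from transgenic T. cruzi replicating inside host cells; inhibitors lower the luminescence signal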
[15] = NIH3T3 cell viability loss – ATP luminescence, mouse fibroblasts, counter-screen, dose response (AID 2010); type: functional, cell-based;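 further: cells exposed to compound for about 90 hours before reading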
[16] = reduction of Shn3 3'UTR-driven luciferase in osteoblasts – cell-based, Clone20 osteoblasts, firefly luciferase, cherry-picked, dose response (AID 624132); type: functional;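 further: firefly luciferase luminescence from reporter carrying the Shn3 3'UTR in osteoblasts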
[17] = loss of viability in HepG2 cells – cell-based, CellTiter-Glo, cherry-picked, cytotoxicity control for Shn3 inhibitor project, dose response (AID 624134); type: functional
[18] = non-specific 3'UTR reporter inhibition in Clone20-Shn3RL – cell-based, Renilla luciferase, cherry-picked, counter-screen for Shn3 inhibitor project, dose response (AID 624133); type: functional
[19] = target: Cytochrome P450 3A4 (Homo sapiens, UniProt P08684);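 further: CYP3A4 tested as one member of a cytochrome P450 panel screen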
Cytochrome P450 3A4, sequence (P08684 whole entry): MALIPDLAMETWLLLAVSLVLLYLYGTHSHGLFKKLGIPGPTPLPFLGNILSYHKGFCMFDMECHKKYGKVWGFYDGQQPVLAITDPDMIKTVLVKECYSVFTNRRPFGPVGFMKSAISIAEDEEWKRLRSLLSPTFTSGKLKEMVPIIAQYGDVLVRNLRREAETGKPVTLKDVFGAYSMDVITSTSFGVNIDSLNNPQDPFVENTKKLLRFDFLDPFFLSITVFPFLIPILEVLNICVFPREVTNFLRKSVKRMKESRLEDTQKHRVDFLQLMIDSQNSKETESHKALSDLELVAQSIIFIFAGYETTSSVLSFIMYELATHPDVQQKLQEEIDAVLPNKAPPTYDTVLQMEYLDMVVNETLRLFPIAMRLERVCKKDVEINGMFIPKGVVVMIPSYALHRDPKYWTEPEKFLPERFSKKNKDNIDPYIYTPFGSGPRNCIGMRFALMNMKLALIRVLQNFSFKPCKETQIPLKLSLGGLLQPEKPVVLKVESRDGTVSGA

[20] = target: Cytochrome P450 2C19 (Homo sapiens, UniProt P33261); test: Cytochrome panel assay with activity outcomes. Panel member name: p450-cyp2c19 Compounds with AC50 equal or less than 10 uM are considered active; type: functional; settings: read-out: AC50
Cytochrome P450 2C19, sequence (P33261 whole entry, the tested form may be a part): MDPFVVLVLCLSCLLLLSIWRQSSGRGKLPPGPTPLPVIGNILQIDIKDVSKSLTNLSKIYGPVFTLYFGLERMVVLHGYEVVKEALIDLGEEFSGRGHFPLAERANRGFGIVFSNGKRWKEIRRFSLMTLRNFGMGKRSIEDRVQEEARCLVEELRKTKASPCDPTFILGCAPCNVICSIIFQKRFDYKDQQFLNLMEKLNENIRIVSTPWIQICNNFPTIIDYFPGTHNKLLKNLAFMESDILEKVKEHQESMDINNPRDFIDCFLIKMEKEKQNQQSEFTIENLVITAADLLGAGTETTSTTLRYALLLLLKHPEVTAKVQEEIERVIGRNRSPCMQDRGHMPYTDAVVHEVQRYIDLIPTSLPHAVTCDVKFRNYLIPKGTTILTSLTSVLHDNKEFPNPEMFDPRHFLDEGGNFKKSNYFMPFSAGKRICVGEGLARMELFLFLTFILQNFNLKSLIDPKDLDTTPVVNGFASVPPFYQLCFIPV

[21] = blockers of HIV-1 envelope-mediated cell-cell fusion – cherry-pick, dose response (AID 652057); type: functional, cell-based
[22] = HIV-1 AD8 envelope cell-cell fusion blockers – cherry-pick, dose response (AID 652062); type: functional, cell-based;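 further: luciferase signal from cell-cell fusion driven by HIV-1 clade B AD8 Env; potency is for inhibitors of fusion seen as a drop in luminescence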
[23] = target: Paired box protein Pax-8 (Homo sapiens, UniProt Q06710); test: PAX8 transcriptional activity inhibition in RMG-I – RMG-I cells, luciferase, cherry-pick, dose response (AID 687027); type: functional, cell-based;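 further: luciferase reporter driven by Pax8 target thyroperoxidase promoter measured by SteadyGlo luminescence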
Paired box protein Pax-8, sequence (Q06710 whole entry): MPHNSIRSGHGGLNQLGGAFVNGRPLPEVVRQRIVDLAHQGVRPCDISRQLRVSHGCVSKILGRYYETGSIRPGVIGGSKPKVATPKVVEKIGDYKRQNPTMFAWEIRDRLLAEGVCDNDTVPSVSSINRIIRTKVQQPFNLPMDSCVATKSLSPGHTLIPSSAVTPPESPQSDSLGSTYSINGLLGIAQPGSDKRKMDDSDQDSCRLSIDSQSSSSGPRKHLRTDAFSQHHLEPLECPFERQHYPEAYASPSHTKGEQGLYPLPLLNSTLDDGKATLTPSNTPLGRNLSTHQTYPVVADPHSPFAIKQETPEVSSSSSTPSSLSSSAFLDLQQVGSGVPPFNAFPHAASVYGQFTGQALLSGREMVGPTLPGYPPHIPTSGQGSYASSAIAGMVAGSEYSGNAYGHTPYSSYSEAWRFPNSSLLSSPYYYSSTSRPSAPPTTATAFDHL

Cytochrome P450 2C9, sequence (P11712 whole entry): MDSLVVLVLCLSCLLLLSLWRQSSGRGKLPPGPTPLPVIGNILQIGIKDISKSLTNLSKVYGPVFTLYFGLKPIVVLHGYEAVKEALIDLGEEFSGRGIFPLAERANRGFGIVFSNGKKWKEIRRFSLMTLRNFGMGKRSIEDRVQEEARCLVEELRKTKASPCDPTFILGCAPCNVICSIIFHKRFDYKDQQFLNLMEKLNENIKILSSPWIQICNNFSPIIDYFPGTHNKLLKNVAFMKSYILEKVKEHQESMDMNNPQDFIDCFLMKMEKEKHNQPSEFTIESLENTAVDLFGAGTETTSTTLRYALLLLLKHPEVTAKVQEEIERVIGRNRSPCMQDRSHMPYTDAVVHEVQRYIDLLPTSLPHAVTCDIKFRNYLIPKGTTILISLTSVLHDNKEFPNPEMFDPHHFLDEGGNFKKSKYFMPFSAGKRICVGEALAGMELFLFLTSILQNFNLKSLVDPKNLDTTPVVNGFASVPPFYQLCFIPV

CNc1nc(C)cc(C)c1S(=O)(=O)c1ccc(C)cc1
AC50 [1]: inconclusive

COc1cc(C(=O)N2CCN(c3ccc(C)cc3C)CC2)cc(OC)c1OC
EC50 [2]: 11.9 µM (active)
EC50 [3]: 138 µM (inconclusive)
EC50 [4]: 2.65 µM (active)
EC50 [5]: 3.45 µM (active)
EC50 [6]: 21.8 µM (inconclusive)
EC50 [7]: 3.97 µM (active)

COC(=O)CN1C(=O)[C@H]2[C@@H](c3ccc(C)o3)N3C(=O)CN(CC4CC4)C(=O)[C@@]3(Cc3ccccc3)[C@H]2C1=O
EC50 [8]: > 350 µM (not active)
EC50 [9]: > 350 µM (not active)

O=C(Cc1ccc(Br)cc1)NCc1ccccc1
EC50 [2]: 11.9 µM (active)
EC50 [3]: 56.3 µM (inconclusive)
EC50 [6]: 45.4 µM (inconclusive)
EC50 [7]: 4.57 µM (active)

COc1cccc(CN(C)CC(=O)Nc2cccc(C(F)(F)F)c2)c1OC
EC50 [10]: > 195 µM (not active)
IC50 [11]: 3.87 µM (not active)

C=CCOC(=O)C(C#N)c1nc2ccccc2nc1N1CCN(Cc2ccc3c(c2)OCO3)CC1 (configuration not stated)
EC50 [12]: 69.2 µM (active)
EC50 [13]: > 112 µM (not active)
EC50 [14]: 1.18 µM (active)
EC50 [15]: > 60 µM (not active)

Cc1cccc(Cn2c(NCCO)nc3c2c(=O)n(C)c(=O)n3C)c1
AC50 [16]: 0.528 µM (active)
AC50 [17]: 2.83 µM (active)
AC50 [18]: 2.12 µM (active)

O=C(NNC(=O)C1CCN(S(=O)(=O)c2ccc(Cl)cc2)CC1)c1ccc(Cl)cc1
AC50 [19]: 3.55 µM (inconclusive)
AC50 [1]: inconclusive

O=S(=O)(c1ccccc1)N1CCCCC1c1cccnc1 (configuration not stated)
AC50 [1]: inconclusive

CCCN(CCC)CCCNS(=O)(=O)c1cc(Br)cc2c1N(C(C)=O)CC2
AC50 [20]: 31.6 µM (inconclusive)
AC50 [1]: inconclusive

C[C@H](CO)N1C[C@H](C)[C@H](CN(C)S(=O)(=O)c2ccccc2)Oc2ccc(NC(=O)Cc3ccccc3)cc2CC1=O
AC50 [21]: < 0.26 µM (active)
AC50 [22]: < 0.26 µM (active)

COc1ccc(S(=O)(=O)Nc2ccc3c(c2)C(=O)N([C@H](C)CO)C[C@H](C)[C@H](CN(C)S(=O)(=O)c2ccc(F)cc2)OCCCC[C@H](C)O3)cc1
AC50 [23]: 4.78 µM (active)

Cc1[nH]c2ccccc2c1/C=N/NC(=S)NCc1ccccc1
IC50 [11]: 15.1 µM (not active)

O=C(O/N=C\c1ccc(N2CCCCC2)c([N+](=O)[O-])c1)c1c(F)cccc1F
AC50 [20]: 11.2 µM (inconclusive)
AC50 [19]: 12.6 µM (inconclusive)
AC50 [1]: inconclusive

COc1cc(N/N=C/c2ccc(N(C)C)cc2)ncn1
EC50 [12]: 2.9 µM (active)
EC50 [13]: 0.989 µM (active)

CC(=O)Nc1ccc(S(=O)(=O)c2ccc(N)cc2)cc1 [MONO-N-ACETYL DAPSONE]
AC50 [1]: inconclusive
